Consider two compounds from PMC9612231, “Antileishmanial Anthracene Endoperoxides: Efficacy In Vitro, Mechanisms and Structure-Activity Relationships” (Molecules, 2022).

One experiment concerns J774 macrophages. Briefly: Cellular oxygen consumption of J774 cells (OxoPlates). The format is cell-based, murine. To be noted: 200 µM compound, 2 × 10^6 cells/mL. The source says:
(§1) The experimental data so far indicate that in more complex EP not only the endoperoxyl group contributes to its pharmacological actions. Therefore, mitochondria present in the parasites but also in the host cells could be either a trigger for activating pharmacological actions of these compounds or a target of EP-derived radicals generated at other sites in the cell. In a subsequent experiment, we tested the influence of AcEP and non-endoperoxidic analogs (Ac) on the mitochondrial oxygen consumption in LtP and J774 macrophages (Figure 9).
(§2) Oxygen consumption rates of LtP in complete BHI culture medium and J774 in PBS-gluc treated with AcEPs were measured using round-bottomed OxoPlates (OP96U, Precision Sensing GmbH, Regensburg, Germany). […] Then, the fluorescence of both calibration media was measured at a microplate reader (Perkin Elmer EnSpire, Rodgau, Germany) in a dual kinetic mode, using an excitation wavelength of 540 nm for both dyes and emission wavelengths of 650 nm for the indicator dye and 590 nm for the reference dye. The ratio of both fluorescence intensities (IR) was calculated for each well and averaged giving the two calibration constants k0 (oxygen-free) or k100 (air-saturated). […] Both fluorescence intensities of each well were determined in 5 min intervals over up to 40 min. Each compound was measured in quadruplicates. […]

In experiment [1] the test system is LtP. Briefly: Superoxide radical formation in LtP by the EPR/CMH method. It counts as cell-based, Leishmania tarentolae. The settings on record: 20 min at 25 °C; for Superoxide formation in LtP (CMH oxidation), in words: 100 µM compound. The source says: Since mitochondrial inhibition can be triggered by secondary damage in the respective cells, for example, by superoxide radicals, we studied the formation of superoxide radicals in LtP by the EPR/hydroxyl-3-methoxycarbonyl-2,2,5,5-tetramethylpyrrolidine hydrochloride (CMH) method (Figure 10). […] In the presence of antimycin A (AA, an inhibitor of mitochondrial complex III), the superoxide radical formation in LtP is increased by more than 150% (Figure 11).
An aliquot of the LtP cell culture equivalent to 5 × 10^8 LtP was transferred into a 1.5 mL Eppendorf tube and was centrifuged (Hettich Universal 16, 20 °C, 2000× g, 10 min). After removal of the supernatant, the cell pellet was re-suspended in 1 mL PBS and centrifuged again and the supernatant discarded. The cell pellet was re-suspended in 1 mL of PBS with 15 mM glucose (PBS-gluc), giving a final cell density of 5 × 10^8 LtP/mL. AcEP/Ac compounds were added (100 µM final concentration) to aliquots of 50 µL of this cell suspension in 1.5 mL Eppendorf tubes and incubated for 20 min at 25 °C. Then, DFO (100 μM final concentration), DTPA (25 μM final concentration), and detection agent CMH (400 µM final concentration) were added to the aliquots before measurement. Samples containing only buffer (PBS-gluc) or only LtP (in PBS-gluc) were used as negative controls, while samples containing 20 μM AA were used as positive control. An aliquot of 17 µL suspension was aspirated into a PTFE tube (ø 0.7 mm). The tube was folded into a quartz tube (ø 4 mm outer diameter) and then transferred to the MD5 resonator of the EPR spectrometer. The measurement was started using following parameters: microwave frequency 9.682 GHz; microwave power 20 mW, modulation frequency 100 kHz; modulation amplitude 1 G; time constant 0.82 s; center field 3448 G; sweep width 100 G; scan time 84 s; attenuation 70 dB; separate scans 5. Based on a calibration curve with carboxy proxyl (CP^●) changes of the peak-to-peak intensity of CM^● spectra were converted to CMH oxidation rates (superoxide radical generation).

For experiment [2], the system named is LtP. Kind of experiment: Cellular oxygen consumption of LtP (OxoPlates). The settings on record: 200 µM compound, 140 × 10^6 cells/mL. The format is cell-based, Leishmania tarentolae.
Excerpt: as §1, §2

On to `CC(C)(C)c1ccc2c(c1)C1(c3cccnc3)OOC2(c2cccnc2)c2ccccc21` (stereo not drawn) [mPyBuAcEP], for which, in the experiment with J774 macrophages, the “Inhibition of mitochondrial oxygen consumption in J774 macrophages” value was “more moderate”. Besides, in the experiment with LtP [1] (100 µM Ac/AcEP), the “Increase of superoxide formation in LtP” value is “more than 70%”. In the experiment on LtP [1], the “Superoxide formation in LtP (CMH oxidation), in words” value is recorded as “most effective in boosting the superoxide production”. Also, the “Inhibition of mitochondrial oxygen consumption in LtP” value in the experiment on LtP [2] is listed as “interfered strongly”.

Turning to `CC(C)(C)c1ccc2c(-c3cccnc3)c3ccccc3c(-c3cccnc3)c2c1` [mPyBuAc], the “Superoxide formation in LtP (CMH oxidation), in words” value in the experiment with LtP [1] was “most effective in boosting the superoxide production”. Further, in the experiment with LtP [2], the “Inhibition of mitochondrial oxygen consumption in LtP” value is recorded as “even stronger inhibition”.
